Measured values published in patent publication US20130090318A1, “ONCE-A-MONTH METHOD OF CONTRACEPTION” (LABORATOIRE HRA-PHARMA, priority 2010, published 2013).

System: women
Assay: Effect of one intake of levonorgestrel within different stages of the menstrual cycle on women pregnancies
Assay type: in vivo
Conditions: levonorgestrel 1.5 mg single oral tablet, 1,117 women
Protocol: 1,117 women (aged 24.9+/−6.5 years) received levonorgestrel (1.5 mg) in form of a single oral tablet during different stages of their menstrual cycle.
The reference (day 0) is the ovulation. The fertile period extends from five days before the ovulation to one day after the ovulation.

C#C[C@]1(O)CC[C@H]2[C@@H]3CCC4=CC(=O)CC[C@@H]4[C@H]3CC[C@@]21CC [levonorgestrel, D-(−)-ethyl-13β ethynyl-17α hydroxy-17 gonene-4 one-3]
% pregnancies (failures) (menstrual cycle stage <−5 day (day 0 = ovulation)): 0% | % pregnancies (failures) (menstrual cycle stage >+1 day (day 0 = ovulation)): 44% | % pregnancies (failures) (menstrual cycle stage between −5 and +1 day (fertile period)): 56%
